Assay results as given in patent publication US20200093821A1, “Pharmaceutical Compositions of a Benzothiophene Compound” (Hexal AG, priority 2016, published 2020).
Each block holds one molecule with its values, some of them ahead of it.

Legend:
[1] = biological target: T1, serotonin 5-HT1A receptors (Homo sapiens, UniProt P08908); details: cited from earlier work
T1 sequence (P08908 1-422): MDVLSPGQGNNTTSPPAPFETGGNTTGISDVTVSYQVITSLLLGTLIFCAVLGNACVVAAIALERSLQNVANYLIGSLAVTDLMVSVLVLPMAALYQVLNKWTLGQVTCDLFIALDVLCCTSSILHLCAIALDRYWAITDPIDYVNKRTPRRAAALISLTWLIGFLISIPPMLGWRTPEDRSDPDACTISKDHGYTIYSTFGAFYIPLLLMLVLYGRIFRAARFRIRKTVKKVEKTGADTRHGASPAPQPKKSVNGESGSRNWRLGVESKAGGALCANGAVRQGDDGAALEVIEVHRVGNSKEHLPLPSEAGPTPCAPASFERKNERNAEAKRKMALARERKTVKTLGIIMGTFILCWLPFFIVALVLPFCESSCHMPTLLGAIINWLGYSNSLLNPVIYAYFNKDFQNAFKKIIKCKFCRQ

[2] = UV lamp irradiation of brexpiprazole solution in toluene/methanol; assay type: physicochemical
Protocol: For the structure determination of the compound of formula II in Example 2 it was therefore necessary to produce larger quantities of that compound. […] The suspension was heated to 50° C. After stirring for 10 minutes, a clear solution was obtained. The solution was put into a transparent glass vial and irradiated for 18 h by a UV lamp (UVHQ 250 Z by “UV Technik Speziallampen”; radiation strength UVC/UVB/UVA: 38 W at 200 nm-280 nm; 20 W at 280 nm-315 nm; 18 W at 315 nm-400 nm). A light brown, clear solution was obtained. A mixture of brexpiprazole and compound II was obtained (19:81 area %).

[3] = biological target: serotonin 5-HT2A receptors (Homo sapiens, UniProt P28223); details: cited from earlier work
serotonin 5-HT2A receptors, sequence (P28223 whole entry): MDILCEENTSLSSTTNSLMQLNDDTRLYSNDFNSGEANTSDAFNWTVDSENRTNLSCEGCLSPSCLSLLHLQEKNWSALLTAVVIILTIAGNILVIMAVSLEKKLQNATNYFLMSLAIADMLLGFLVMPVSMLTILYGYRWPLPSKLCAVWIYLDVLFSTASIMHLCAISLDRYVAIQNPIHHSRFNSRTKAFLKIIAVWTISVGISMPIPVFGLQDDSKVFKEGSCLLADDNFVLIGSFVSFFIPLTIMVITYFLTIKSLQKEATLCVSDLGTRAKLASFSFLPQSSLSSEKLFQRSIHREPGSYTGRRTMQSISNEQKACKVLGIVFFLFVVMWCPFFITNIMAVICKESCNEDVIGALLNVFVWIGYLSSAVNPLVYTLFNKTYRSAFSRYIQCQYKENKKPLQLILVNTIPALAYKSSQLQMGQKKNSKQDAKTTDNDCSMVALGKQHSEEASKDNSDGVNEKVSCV

dopamine D2 receptors = dopamine D2 receptors (Homo sapiens, UniProt P14416); details: cited from earlier work
dopamine D2 receptors, sequence (P14416 whole entry): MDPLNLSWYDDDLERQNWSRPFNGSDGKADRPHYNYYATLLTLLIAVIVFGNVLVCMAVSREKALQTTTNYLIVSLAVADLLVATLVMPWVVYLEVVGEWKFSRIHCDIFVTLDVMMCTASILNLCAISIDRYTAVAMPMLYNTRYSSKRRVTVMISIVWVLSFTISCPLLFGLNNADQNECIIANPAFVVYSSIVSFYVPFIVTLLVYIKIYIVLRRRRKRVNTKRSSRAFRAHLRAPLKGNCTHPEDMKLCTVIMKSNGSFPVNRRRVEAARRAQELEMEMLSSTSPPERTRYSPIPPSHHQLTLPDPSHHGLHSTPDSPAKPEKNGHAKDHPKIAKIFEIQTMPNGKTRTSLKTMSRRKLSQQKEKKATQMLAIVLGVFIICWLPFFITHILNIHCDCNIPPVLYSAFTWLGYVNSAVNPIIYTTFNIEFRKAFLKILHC

[4] = UV irradiation of suspensions in oils, HPLC analysis; assay type: physicochemical; details: irradiated 4 hours; for Brexpiprazole (area) / Compound I (area) / Compound II (area): HPLC
Protocol: [table] Suspensions of brexpiprazole anhydrate or brexpiprazole dihydrate (about 10 mg per experiment) in different oils (about 105 mg per suspension) were prepared and irradiated for 4 hours.

[5] = UV exposure of solid brexpiprazole forms (Atlas Suntester XLS+); assay type: physicochemical; details: 60 h Suntester
Source text: Brexpiprazole anhydrate and brexpiprazole dihydrate were respectively exposed to UV-radiation using an appropriate illumination device (Atlas Suntester XLS+) at 250 W/m^2 for 60 hrs, which corresponds to a total UV light intensity of […].

[6] = toluene/methanol solution, UV lamp 18 h
[7] = suspension in castor oil, listed as Brx. Anhydrate
[8] = suspension in peanut oil, listed as Brx. Anhydrate
[9] = suspension in castor oil, listed as Brx. Dihydrate
[10] = suspension in peanut oil, listed as Brx. Dihydrate

SMILES: O=c1ccc2ccc(OCCCCN3CCN(c4cccc5sccc45)CC3)cc2[nH]1 [Brexpiprazole, 7-[4-[4-(1-Benzothiophen-4-yl)piperazin-1-yl]butoxy]quinolin-2(1H)-one]
activity at serotonin 5-HT1A receptors [1]: partial agonist activity
sensitivity to UV-radiation vs brexpiprazole anhydrate ([2]; brexpiprazole in solution): significantly more sensitive
stability in control experiment ([2]; solution protected from UV light, vial wrapped in aluminum foil): remained stable
brexpiprazole remaining in mixture [2, 6]: 19 area %
compound II formed in mixture [2, 6]: 81 area %
activity at serotonin 5-HT2A receptors [3]: antagonist activity
activity at dopamine D2 receptors (dopamine D2 receptors): partial agonist activity

Brexpiprazole (area) [4, 7]: 99.6%
Compound I (area) [4, 7]: 0.0%
Compound II (area) [4, 7]: 0.4%
Brexpiprazole (area) ([4]; suspension in corn oil): 99.8%
Compound I (area) ([4]; suspension in corn oil): 0.0%
Compound II (area) ([4]; suspension in corn oil): 0.2%
Brexpiprazole (area) [4, 8]: 99.8%
Compound I (area) [4, 8]: 0.0%
Compound II (area) [4, 8]: 0.2%
SMILES: O=c1ccc2ccc(OCCCCN3CCN(c4cccc5sccc45)CC3)cc2[nH]1 [Brexpiprazole Anhydrate]

sensitivity to UV-induced dimerization vs brexpiprazole anhydrate ([4]; oil suspensions): more sensitive
Brexpiprazole (area) [4, 9]: 61.7%
Compound I (area) [4, 9]: 35.1%
Compound II (area) [4, 9]: 3.2%
Brexpiprazole (area) ([4]; suspension in corn oil): 64.9%
Compound I (area) ([4]; suspension in corn oil): 32.2%
Compound II (area) ([4]; suspension in corn oil): 3.0%
Brexpiprazole (area) [4, 10]: 64.3%
Compound I (area) [4, 10]: 32.4%
Compound II (area) [4, 10]: 3.3%
sensitivity to UV-induced dimerization vs anhydrate form [5]: significantly more sensitive
SMILES: O=c1ccc2ccc(OCCCCN3CCN(c4cccc5sccc45)CC3)cc2[nH]1 [Brexpiprazole Dihydrate]
